Where two headings read alike, the source gives them in different places.
Tests used:
rat A1 receptors (rA1) = target: T1, rat A1 receptors (rA1) (Rattus norvegicus, UniProt P25099); assay: Displacement of [3H]R-PIA binding in rat brain (cerebral cortical) membranes; conditions: Table 4; read-out: rA1 Ki
T1 construct: to A1 receptors from rat cerebral cortical membranes; from tissue; host or cells: rat cerebral cortical (brain) membranes
T1 sequence (P25099 1-326): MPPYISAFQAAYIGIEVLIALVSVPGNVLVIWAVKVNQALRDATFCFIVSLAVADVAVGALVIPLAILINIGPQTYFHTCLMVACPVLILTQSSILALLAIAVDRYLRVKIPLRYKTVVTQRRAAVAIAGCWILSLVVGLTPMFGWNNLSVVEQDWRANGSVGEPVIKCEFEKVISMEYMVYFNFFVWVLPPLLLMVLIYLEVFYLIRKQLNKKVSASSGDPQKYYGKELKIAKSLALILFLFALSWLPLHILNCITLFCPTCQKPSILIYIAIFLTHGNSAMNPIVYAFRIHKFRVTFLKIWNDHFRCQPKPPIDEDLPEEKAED

rat A2A receptors (rA2A) = target: T2, rat A2A receptors (rA2A) (Rattus norvegicus, UniProt P30543); assay: Displacement of [3H]CGS 21680 binding in rat striatal membranes; conditions: Table 4; read-out: rA2A Ki
T2 construct: to A2A receptors from rat striatal membranes was performed as described; from tissue; host or cells: rat striatal membranes
T2 sequence (P30543 whole entry): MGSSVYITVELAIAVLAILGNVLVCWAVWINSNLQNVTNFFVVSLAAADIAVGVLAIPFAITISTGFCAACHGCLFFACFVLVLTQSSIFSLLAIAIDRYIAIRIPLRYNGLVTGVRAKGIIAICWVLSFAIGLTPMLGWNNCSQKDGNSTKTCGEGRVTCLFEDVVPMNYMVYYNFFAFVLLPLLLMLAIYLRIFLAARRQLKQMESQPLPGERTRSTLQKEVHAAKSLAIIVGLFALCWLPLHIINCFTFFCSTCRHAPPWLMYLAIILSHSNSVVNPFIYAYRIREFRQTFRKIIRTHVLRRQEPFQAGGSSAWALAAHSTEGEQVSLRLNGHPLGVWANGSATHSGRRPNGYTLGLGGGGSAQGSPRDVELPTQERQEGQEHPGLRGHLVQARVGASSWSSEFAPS

[1] = target: T3, human A2B receptors (hA2B) (Homo sapiens, UniProt P29275); assay: Radioligand binding ([125I]ABOPX / [3H]ZM241385) at human A2B receptors expressed in HEK-293 cells; conditions: for rA1/hA2B: Ki ratio
T3 construct: expressed in transfected cells; host or cells: HEK-293 (HEK-A2B, G418-selected)
T3 sequence (P29275 1-332): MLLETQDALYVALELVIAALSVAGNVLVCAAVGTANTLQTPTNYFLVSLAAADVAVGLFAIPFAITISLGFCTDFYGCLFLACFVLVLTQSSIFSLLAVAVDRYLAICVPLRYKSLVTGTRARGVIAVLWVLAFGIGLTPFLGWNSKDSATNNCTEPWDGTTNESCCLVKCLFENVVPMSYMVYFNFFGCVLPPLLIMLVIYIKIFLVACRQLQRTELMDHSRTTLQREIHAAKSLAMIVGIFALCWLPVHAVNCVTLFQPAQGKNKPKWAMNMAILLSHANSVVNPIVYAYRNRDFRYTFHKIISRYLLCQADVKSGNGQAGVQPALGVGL

human A3 receptors (hA3) = target: T4, human A3 receptors (hA3) (Homo sapiens, UniProt P0DMS8); assay: Displacement of [125I]AB-MECA binding at human A3 receptors expressed in HEK-293 cells (Table 4)
T4 construct: expressed in transfected cells; host or cells: HEK-293
T4 sequence (P0DMS8 1-318): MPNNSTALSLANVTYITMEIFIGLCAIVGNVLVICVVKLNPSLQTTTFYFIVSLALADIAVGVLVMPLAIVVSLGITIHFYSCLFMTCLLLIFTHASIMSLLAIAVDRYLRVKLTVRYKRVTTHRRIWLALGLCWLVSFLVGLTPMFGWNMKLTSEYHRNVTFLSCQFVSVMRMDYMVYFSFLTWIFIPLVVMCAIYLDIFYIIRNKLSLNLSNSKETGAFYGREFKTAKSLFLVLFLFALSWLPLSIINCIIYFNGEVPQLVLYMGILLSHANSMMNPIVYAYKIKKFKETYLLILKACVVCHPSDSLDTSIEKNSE

[2] = target: T5, recombinant human A1 receptors (hA1) (Homo sapiens, UniProt P30542); assay: Radioligand binding ([3H]CPX) at recombinant human A1 receptors in HEK-293 cells
T5 sequence (P30542 1-326): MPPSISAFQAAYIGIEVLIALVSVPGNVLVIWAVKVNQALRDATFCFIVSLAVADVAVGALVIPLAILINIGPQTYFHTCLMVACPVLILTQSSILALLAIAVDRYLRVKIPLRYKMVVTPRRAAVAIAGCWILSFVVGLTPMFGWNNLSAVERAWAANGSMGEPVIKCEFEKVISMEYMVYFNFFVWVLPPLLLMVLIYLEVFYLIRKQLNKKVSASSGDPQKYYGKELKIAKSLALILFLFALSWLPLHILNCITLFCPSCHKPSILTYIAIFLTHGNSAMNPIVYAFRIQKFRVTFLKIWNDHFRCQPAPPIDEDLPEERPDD
Description: (§1) All non-radioactive compounds were initially dissolved in DMSO, and diluted with buffer to the final concentration, where the amount of DMSO never exceeded 2%. Incubations were terminated by rapid filtration over Whatman GF/B filters, using a Brandell cell harvester (Brandell, Gaithersburg, Md.). The tubes were rinsed three times with 3 mL buffer each.
(§2) At least six different concentrations of competitor, spanning 3 orders of magnitude adjusted appropriately for the IC50 of each compound, were used. IC50 values, calculated with the nonlinear regression method implemented in (Graph-Pad Prism, San Diego, Calif.), were converted to apparent Ki values as described.
(§3) The potency of the xanthine derivatives at human A2B receptors was evaluated using two binding assays. […] In order to determine selectivity, the xanthines were evaluated using standard binding assays at A1, A2A, and A3 receptors.

[3] = target: recombinant human A2A receptors (hA2A) (Homo sapiens, UniProt P29274); assay: Radioligand binding (125I-ZM241385) at recombinant human A2A receptors in HEK-293 cells
Sequence of recombinant human A2A receptors (hA2A) (P29274 whole entry): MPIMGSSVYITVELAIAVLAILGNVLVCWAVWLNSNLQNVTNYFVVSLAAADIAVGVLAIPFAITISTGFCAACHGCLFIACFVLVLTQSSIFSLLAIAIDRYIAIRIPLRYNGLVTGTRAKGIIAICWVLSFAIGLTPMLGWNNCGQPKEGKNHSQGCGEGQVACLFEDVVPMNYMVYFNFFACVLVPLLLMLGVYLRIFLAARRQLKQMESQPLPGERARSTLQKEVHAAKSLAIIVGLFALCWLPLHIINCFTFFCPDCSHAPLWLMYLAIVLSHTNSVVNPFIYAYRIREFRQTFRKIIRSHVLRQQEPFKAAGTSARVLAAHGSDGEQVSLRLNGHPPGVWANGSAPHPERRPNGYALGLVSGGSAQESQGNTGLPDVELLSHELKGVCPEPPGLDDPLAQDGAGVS
Description: as §1, §2, §3

[4] = Table 4, unmarked value, first of two binding assays, read-out: hA2B Ki
[5] = read-out: Ki value at human A2B receptors
[6] = read-out: hA1 Ki, values marked (h)^a, Table 4, vs [3H]CPX, HEK-293
[7] = read-out: hA2A Ki, values marked (h)^a, Table 4, vs [125I]ZM241385, HEK-293

Structure (SMILES)	Ki (rat A1 receptors (rA1)) [nM]	Ki (rat A2A receptors (rA2A)) [nM]	rA1/hA2B ([1]; Table 4)	Ki [1, 4] [nM]	Ki [1, 5] [nM]	Ki (human A3 receptors (hA3)) [nM]	Ki [2, 6] [nM]	Ki [3, 7] [nM]	Ki ([1]; Table 4, footnote a: [125I]-ABOPX, read-out: hA2B Ki (value marked ^a) (converted)) [nM]	Ki [2] [nM]	Ki [3] [nM]
CCCn1c(=O)c2[nH]c(-c3ccc(OCC(=O)NNC(=O)C4=C(C(=O)O)CCCC4)cc3)nc2n(CCC)c1=O [Compound 55, 8-[4-[(Carboxymethyl)oxy]phenyl]-1,3-di-(n-propyl)xanthine N-[2-((1-Carboxy)-1-cyclohexene)-carbonyl]hydrazide]	47.2 ± 6.8	422 ± 136	2.7	17.3 ± 6.3	17	438 ± 109	145	95.6			
CCCn1c(=O)c2[nH]c(-c3ccc(OCC(=O)NNC(=O)C4=C(C(=O)O)CCC4)cc3)nc2n(CCC)c1=O [Compound 53, 8-[4-[(Carboxymethyl)oxy]phenyl]-1,3-di-(n-propyl)xanthine N-[2-((1-Carboxy)-1-cyclopentene)-carbonyl]hydrazide]	81.7 ± 31.2	708 ± 169	1.0	78.5 ± 20.5		1180 ± 700					
CCCn1c(=O)c2[nH]c(-c3ccc(OCC(=O)NN4C(=O)C5=C(CCC5)C4=O)cc3)nc2n(CCC)c1=O [Compound 54, 8-[4-[(Carboxymethyl)oxy]phenyl]-1,3-di-(n-propyl)xanthine N,N-(1-Cyclopentene-1,2-dicarbonyl)hydrazide]	41.3 ± 6.4	1160 ± 337	1.9	21.5 ± 1.5		309 ± 88					
CCCn1c(=O)c2[nH]c(-c3ccc(OCC(=O)NN4C(=O)C5=C(CCCC5)C4=O)cc3)nc2n(CCC)c1=O [Compound 56, 8-[4-[(Carboxymethyl)oxy]phenyl]-1,3-di-(n-propyl)xanthine N,N-(3,4,5,6-Tetrahydrophthaloyl)hydrazide]	61.9 ± 11.3	415 ± 157	1.7	35.8 ± 0.7		245 ± 45					
CCCn1c(=O)c2[nH]c(-c3ccc(OCC(=O)NNC(=O)C4CC=CCC4C(=O)O)cc3)nc2n(CCC)c1=O (stereo not drawn) [Compound 51, 8-[4-[(Carboxymethyl)oxy]phenyl]-1,3-di-(n-propyl)xanthine N-[2-((1-Carboxy)-cis-4-cyclohexene)-carbonyl]hydrazide]	134 ± 19	813 ± 299	2.6	51 ± 7		1060 ± 150					
CCCn1c(=O)c2[nH]c(-c3ccc(OCC(=O)NN4C(=O)CCC(c5ccccc5)C4=O)cc3)nc2n(CCC)c1=O (stereo not drawn) [Compound 45, 8-[4-[(Carboxymethyl)oxy]phenyl]-1,3-di-(n-propyl)xanthine N,N-[(2-Phenyl)glutaryl]hydrazide]	3.87 ± 1.2	21.4 ± 6.1	1.0	3.86 ± 0.7		151 ± 99					
CCCn1c(=O)c2[nH]c(-c3ccc(OCC(=O)NN4C(=O)C(c5ccccc5)=C(c5ccccc5)C4=O)cc3)nc2n(CCC)c1=O [Compound 50, 8-[4-[(Carboxymethyl)oxy]phenyl]-1,3-di-(n-propyl)xanthine N,N-[(1,2-Diphenyl)maleyl]hydrazide]	95.8 ± 25.1	2100 ± 630	3.4	27.9 ± 8.5		3450 ± 1470					
CCCn1c(=O)c2[nH]c(-c3ccc(OCC(=O)NNC(=O)CNC(=O)CNC(=O)OCc4ccccc4)cc3)nc2n(CCC)c1=O [Compound 64, 8-[4-[(Carboxymethyl)oxy]phenyl]-1,3-di-(n-propyl)xanthine N-(N-Benzyloxycarbonyl-glycylglycinyl)hydrazide]	36 ± 6.6	609 ± 95	3.3	10.8 ± 5	11	323 ± 47	200 ± 22	830 ± 84			
CCCn1c(=O)c2[nH]c(-c3ccc(OCC(=O)NN4C(=O)C=C(c5ccccc5)C4=O)cc3)nc2n(CCC)c1=O [Compound 49, 8-[4-[(Carboxymethyl)oxy]phenyl]-1,3-di-(n-propyl)xanthine N,N-[(2-Phenyl)maleyl]hydrazide]	225 ± 76	1540 ± 280	3.4	66.7 ± 37		748 ± 234					
CCCn1c(=O)c2[nH]c(-c3ccc(OCC(=O)NN4C(=O)CCC4=O)cc3)nc2n(CCC)c1=O [Compound 43, 8-[4-[(Carboxymethyl)oxy]phenyl]-1,3-di-(n-propyl)xanthine N,N-Succinylhydrazide]	55.9 ± 25.1	805 ± 44	3.0	18.6 ± 6.1		766 ± 176	75.2	27.2			
CCCn1c(=O)c2[nH]c(-c3ccc(OCC(=O)NNC(=O)[C@H](CCC(=O)O)NC(=O)C(F)(F)F)cc3)nc2n(CCC)c1=O [Compound 60, 8-[4-[(Carboxymethyl)oxy]phenyl]-1,3-di-(n-propyl)xanthine N-[(4-Carboxy-(2S)-Trifluoroacetamido)-n-butanoyl]hydrazide]	70.8 ± 30.9	872 ± 412	2.9	24.8 ± 7.3	25	430 ± 44					
CCCn1c(=O)c2[nH]c(-c3ccc(OCC(=O)NNC(=O)CCC(=O)O)cc3)nc2n(CCC)c1=O [Compound 42, 8-[4-[(Carboxymethyl)oxy]phenyl]-1,3-di-(n-propyl)xanthine N-[(3-Carboxy)-n-propionyl]hydrazide]	73.3 ± 22	174 ± 32	1.6	116 ± 10		173 ± 27	219	795	97.8		
CCCn1c(=O)c2[nH]c(-c3ccc(OCC(=O)NN4C(=O)C[C@H](NC(=O)C(F)(F)F)C4=O)cc3)nc2n(CCC)c1=O [Compound 44, 8-[4-[(Carboxymethyl)oxy]phenyl]-1,3-di-(n-propyl)xanthine N,N-[((2S)-Trifluoroacetamido)succinyl]hydrazide]	74.3 ± 6.6	139 ± 32	2.5	30.2 ± 0.5		1560					
CCCn1c(=O)c2[nH]c(-c3ccc(OCC(=O)NN4C(=O)CC(O)CC4=O)cc3)nc2n(CCC)c1=O [Compound 59, 8-[4-[(Carboxymethyl)oxy]phenyl]-1,3-di-(n-propyl)xanthine N,N-(3-Hydroxy)glutarylhydrazide]	41.2 ± 16.6	164 ± 61	1.6	25.7 ± 5.5		290 ± 88					
CCCn1c(=O)c2[nH]c(-c3ccc(OCC(=O)NN4C(=O)[C@H]5CC=CC[C@H]5C4=O)cc3)nc2n(CCC)c1=O [Compound 52, 8-[4-[(Carboxymethyl)oxy]phenyl]-1,3-di-(n-propyl)xanthine N,N-(cis-1,2,3,6-Tetrahydrophthaloyl)hydrazide]	36.4 ± 6.2	689 ± 477	3.6		10	370 ± 190				129	301
CCCn1c(=O)c2[nH]c(-c3ccc(OCC(=O)NN4C(=O)CC[C@H](NC(=O)C(F)(F)F)C4=O)cc3)nc2n(CCC)c1=O [Compound 61]	53.5 ± 6.5	440 ± 106	4.1		13	726 ± 245				149	178
